Measured values taken from publication PMC12396409, “Screening and hit evaluation of a microbial metabolite library against the pathogenic Plasmodium falciparum and Toxoplasma gondii parasites” (International Journal for Parasitology: Drugs and Drug …, 2025).
Like-named read-outs stand apart in the source and are kept apart here.

Assays:
[1] = test system: P. falciparum 3D7 parasites; test: P. falciparum growth inhibition assay, 1-cycle (72 h treatment), SYBR DNA staining (library screen at 2 μg/mL and dose-response); type: cell-based, Plasmodium falciparum; settings: for activity at 2 µg/mL: Plasmodium falciparum
[2] = test system: T. gondii RH strain (RH-Tub-eYFP) tachyzoites; test: microbe, parasite or virus in culture; type: cell-based, Toxoplasma gondii; settings: 72 h; for percent parasite growth at 2 µg/mL: Toxoplasma gondii
[3] = test system: P. falciparum 3D7 parasites; test: P. falciparum growth inhibition assay, 2-cycle (120 h treatment), delayed-death screen and dose-response; type: cell-based, Plasmodium falciparum; settings: for activity at 2 µg/mL: Plasmodium falciparum
[4] = P. falciparum, 72 h, parasite screen 2 μg/mL, % growth, replicate 1
[5] = P. falciparum, 72 h, parasite screen 2 μg/mL, % growth, replicate 2
[6] = T. gondii, parasite screen 2 μg/mL, % growth, replicate 1
[7] = T. gondii, parasite screen 2 μg/mL, % growth, replicate 2
[8] = P. falciparum, 120 h, parasite screen 2 μg/mL, % growth, replicate 1
[9] = P. falciparum, 120 h, parasite screen 2 μg/mL, % growth, replicate 2
[10] = P. falciparum, 72 h, screen at 2 μg/mL, replicate 1
[11] = P. falciparum, 72 h, screen at 2 μg/mL, replicate 2
[12] = T. gondii, screen at 2 μg/mL, replicate 1
[13] = T. gondii, screen at 2 μg/mL, replicate 2
[14] = P. falciparum, 120 h, screen at 2 μg/mL, replicate 1
[15] = P. falciparum, 120 h, screen at 2 μg/mL, replicate 2
[16] = library screen at 2 μg/mL, 72 h, % growth, replicate 1
[17] = library screen at 2 μg/mL, 72 h, % growth, replicate 2
[18] = library screen at 2 μg/mL, % growth, replicate 1
[19] = library screen at 2 μg/mL, % growth, replicate 2
[20] = library screen at 2 μg/mL, 120 h, % growth, replicate 1
[21] = library screen at 2 μg/mL, 120 h, % growth, replicate 2
[22] = P. falciparum 3D7, 72 h, library screen at 2 μg/mL, % growth, replicate 1
[23] = P. falciparum 3D7, 72 h, library screen at 2 μg/mL, % growth, replicate 2
[24] = T. gondii RH, library screen at 2 μg/mL, % growth, replicate 1
[25] = T. gondii RH, library screen at 2 μg/mL, % growth, replicate 2
[26] = P. falciparum 3D7, 120 h, library screen at 2 μg/mL, % growth, replicate 1
[27] = P. falciparum 3D7, 120 h, library screen at 2 μg/mL, % growth, replicate 2

## CC(=O)O[C@@H]1CC(=O)OC(C)(C)[C@H]2CC[C@@]3(C)[C@@H](CC=C(C)[C@]34C[C@]3(OC(C)=C(C)C3=O)C(=O)O4)[C@@]21C [Setosusin]
[1]; [4]
  Pf_72h_%Growth_Rep1: 71.51%
[1]; [5]
  Pf_72h_%Growth_Rep2: 99.05%
[2]; [6]
  Tg_72h_%Growth_Rep1: 121.79%
[2]; [7]
  Tg_72h_%Growth_Rep2: 85.10%
[3]; [8]
  Pf_120h_%Growth_Rep1: 76.96%
[3]; [9]
  Pf_120h_%Growth_Rep2: 104.05%

## Cc1cc(=O)c2c(o1)-c1c(cc(O)c(O)c1C(=O)O)OC2 [Citromycetin]
[1]; [10]
  Pf_72h_%Growth_Rep1: 89.81%
[1]; [11]
  Pf_72h_%Growth_Rep2: 87.50%
[2]; [12]
  Tg_72h_%Growth_Rep1: 134.75%
[2]; [13]
  Tg_72h_%Growth_Rep2: 97.97%
[3]; [14]
  Pf_120h_%Growth_Rep1: 103.91%
[3]; [15]
  Pf_120h_%Growth_Rep2: 96.05%

## CC[C@H]1OC(=O)[C@H](C)[C@@H](O[C@H]2C[C@@](C)(OC)[C@@H](O)[C@H](C)O2)[C@H](C)[C@@H](O[C@@H]2O[C@H](C)C[C@H](N(C)C)[C@H]2O)[C@@]2(C)CC(C)=C(O2)[C@H](C)[C@@H](O)[C@]1(C)O [Erythromycin A enol ether]
[1]; [16]
  Pf_72h_%Growth_Rep1: 65.76%
[1]; [17]
  Pf_72h_%Growth_Rep2: 86.36%
[2]; [18]
  Tg_72h_%Growth_Rep1: 90.78%
[2]; [19]
  Tg_72h_%Growth_Rep2: 86.46%
[3]; [20]
  Pf_120h_%Growth_Rep1: 47.90%
[3]; [21]
  Pf_120h_%Growth_Rep2: 73.68%

## CC[C@@H]1C[C@H]2CC[C@H](O2)[C@H](C)C(=O)O[C@@H](C)C[C@@H]2CC[C@@H](O2)[C@@H](C)C(=O)O[C@H](CC)C[C@H]2CC[C@H](O2)[C@H](C)C(=O)O[C@@H](C)C[C@@H]2CC[C@@H](O2)[C@@H](C)C(=O)O1 [Dinactin]
[1]; 3D7, 72 h, library screen at 2 μg/mL, 72 h, % growth, replicate 1, read-out: Pf_72h_%Growth_Rep1
  activity at 2 µg/mL: 3.66%
[1]; 3D7, 72 h, library screen at 2 μg/mL, 72 h, % growth, replicate 2, read-out: Pf_72h_%Growth_Rep2
  activity at 2 µg/mL: -1.84%
[2]; library screen at 2 μg/mL, % growth, replicate 1, read-out: Tg_72h_%Growth_Rep1
  percent parasite growth at 2 µg/mL: 5.15%
[2]; library screen at 2 μg/mL, % growth, replicate 2, read-out: Tg_72h_%Growth_Rep2
  percent parasite growth at 2 µg/mL: 2.32%
[3]; 3D7, 120 h, library screen at 2 μg/mL, 120 h, % growth, replicate 1, read-out: Pf_120h_%Growth_Rep1
  activity at 2 µg/mL: 15.7%
[3]; 3D7, 120 h, library screen at 2 μg/mL, 120 h, % growth, replicate 2, read-out: Pf_120h_%Growth_Rep2
  activity at 2 µg/mL: 11%

## C[C@@H]1C[C@H]2O[C@@H]2/C=C\C=C\C(=O)Cc2c(Cl)c(O)cc(O)c2C(=O)O1 [Radicicol]
[1]; 3D7, P. falciparum, 72 h, parasite screen 2 μg/mL, % growth, replicate 1, read-out: Pf_72h_%Growth_Rep1
  activity at 2 µg/mL: 57.5%
[1]; 3D7, P. falciparum, 72 h, parasite screen 2 μg/mL, % growth, replicate 2, read-out: Pf_72h_%Growth_Rep2
  activity at 2 µg/mL: 42.5%
[2]; T. gondii, parasite screen 2 μg/mL, % growth, replicate 1, read-out: Tg_72h_%Growth_Rep1
  percent parasite growth at 2 µg/mL: 52.9%
[2]; T. gondii, parasite screen 2 μg/mL, % growth, replicate 2, read-out: Tg_72h_%Growth_Rep2
  percent parasite growth at 2 µg/mL: 57.6%
[3]; 3D7, P. falciparum, 120 h, parasite screen 2 μg/mL, % growth, replicate 1, read-out: Pf_120h_%Growth_Rep1
  activity at 2 µg/mL: 64.2%
[3]; 3D7, P. falciparum, 120 h, parasite screen 2 μg/mL, % growth, replicate 2, read-out: Pf_120h_%Growth_Rep2
  activity at 2 µg/mL: 55%

## COCCC[C@H]1O[C@@](O)([C@H](C)C2CC(OC)C(O)/C=C(C)/C=C(C)/C=C(/C)C(O[C@H]3O[C@H](C)[C@@H](OC)[C@H](O)[C@H]3O)C(C)/C=C(CO)/C=C(OC)\C=C(/C)C(=O)O2)[C@H](OC)[C@@H](O)[C@]1(C)O[C@H]1C[C@H](O)[C@H](O[C@H]2C[C@@](C)(O)[C@H](O)[C@@H](C)O2)[C@@H](C)O1 (some centres unmarked) [Amycolatopsin A]
[1]; [16]
  Pf_72h_%Growth_Rep1: 76.67%
[1]; [17]
  Pf_72h_%Growth_Rep2: 110.14%
[2]; [18]
  Tg_72h_%Growth_Rep1: 96.54%
[2]; [19]
  Tg_72h_%Growth_Rep2: 72.55%
[3]; [20]
  Pf_120h_%Growth_Rep1: 67.28%
[3]; [21]
  Pf_120h_%Growth_Rep2: 94.98%

## CCCC(=O)OC1C(C)OC(OC2C(C)OC(OC3C(CC=O)CC(C)C(O)C=CC=CCC(C)OC(=O)CC(OC(C)=O)C3OC)C(O)C2N(C)C)CC1(C)O (centres unmarked) [BIA-L1364]
[1]; [22]
  Pf_72h_%Growth_Rep1: 50.48%
[1]; [23]
  Pf_72h_%Growth_Rep2: 43.27%
[2]; [24]
  Tg_72h_%Growth_Rep1: 19.43%
[2]; [25]
  Tg_72h_%Growth_Rep2: 27.43%
[3]; [26]
  Pf_120h_%Growth_Rep1: 4.30%
[3]; [27]
  Pf_120h_%Growth_Rep2: -1.28%

## O=C1N[C@@H](Cc2ccccc2)C(=O)N2CCC[C@@H]12 [Cyclo(L-Phe-L-Pro)]
[1]; [10]
  Pf_72h_%Growth_Rep1: 92.82%
[1]; [11]
  Pf_72h_%Growth_Rep2: 90.35%
[2]; [12]
  Tg_72h_%Growth_Rep1: 128.14%
[2]; [13]
  Tg_72h_%Growth_Rep2: 102.31%
[3]; [14]
  Pf_120h_%Growth_Rep1: 82.75%
[3]; [15]
  Pf_120h_%Growth_Rep2: 99.85%

## CCOC(=O)c1c(C)cc(O)cc1O [Ethyl orsellinate]
[1]; [16]
  Pf_72h_%Growth_Rep1: 90.89%
[1]; [17]
  Pf_72h_%Growth_Rep2: 117.50%
[2]; [18]
  Tg_72h_%Growth_Rep1: 128.38%
[2]; [19]
  Tg_72h_%Growth_Rep2: 103.54%
[3]; [20]
  Pf_120h_%Growth_Rep1: 96.78%
[3]; [21]
  Pf_120h_%Growth_Rep2: 106.42%

## CC(=O)OC1CCC2(C)C(CCC3C2CC(=O)C2(C)C3CC3OC4(CCC(C)CO4)C(C)C32)C1 (centres unmarked) [BIA-H1764]
[1]; [22]
  Pf_72h_%Growth_Rep1: 86.38%
[1]; [23]
  Pf_72h_%Growth_Rep2: 124.08%
[2]; [24]
  Tg_72h_%Growth_Rep1: 117.31%
[2]; [25]
  Tg_72h_%Growth_Rep2: 105.95%
[3]; [26]
  Pf_120h_%Growth_Rep1: 85.47%
[3]; [27]
  Pf_120h_%Growth_Rep2: 116.07%

## CC[C@]1(C)C[C@@H](OC(=O)CO)C2(C)[C@H](C)CCC3(CCC(=O)[C@H]32)[C@@H](C)[C@@H]1O (some centres unmarked) [Dihydropleuromutilin]
[1]; library screen at 2 μg/mL, 3D7, 72 h, DD from the 120 h timepoint
  Screen (P. falciparum): I, I
[1]; [16]
  Pf_72h_%Growth_Rep1: 84.27%
[1]; [17]
  Pf_72h_%Growth_Rep2: 76.59%
[2]; [18]
  Tg_72h_%Growth_Rep1: 80.68%
[2]; [19]
  Tg_72h_%Growth_Rep2: 63.68%
[2]; library screen at 2 μg/mL, RH strain
  Screen (T. gondii): I, I
[3]; [20]
  Pf_120h_%Growth_Rep1: 42.82%
[3]; [21]
  Pf_120h_%Growth_Rep2: 51.71%

## Capreomycin sulfate
[1]; [10]
  Pf_72h_%Growth_Rep1: 82.18%
[1]; [11]
  Pf_72h_%Growth_Rep2: 86.69%
[2]; [12]
  Tg_72h_%Growth_Rep1: 114.86%
[2]; [13]
  Tg_72h_%Growth_Rep2: 91.40%
[3]; [14]
  Pf_120h_%Growth_Rep1: 94.57%
[3]; [15]
  Pf_120h_%Growth_Rep2: 87.91%

## COc1cc([C@H]2[C@@]3(O)[C@H](O)[C@H]4C[C@]2(O)[C@](O)(C(=O)O4)[C@H]3C(=O)c2ccccc2)oc(=O)c1 [Enterocin]
[1]; [16]
  Pf_72h_%Growth_Rep1: 81.25%
[1]; [17]
  Pf_72h_%Growth_Rep2: 72.68%
[2]; [18]
  Tg_72h_%Growth_Rep1: 101.62%
[2]; [19]
  Tg_72h_%Growth_Rep2: 91.26%
[3]; [20]
  Pf_120h_%Growth_Rep1: 80.40%
[3]; [21]
  Pf_120h_%Growth_Rep2: 114.14%

## CCO[C@@H]1[C@@H](OC)[C@H](C)O[C@@H](O[C@@H]2C[C@H]3CC[C@@H]4[C@@H](C=C5C(=O)[C@H](C)[C@@H](O[C@H]6CC[C@H](N(C)C)[C@@H](C)O6)CCC[C@H](CC)OC(=O)C[C@H]54)[C@@H]3C2)[C@@H]1OC [spinosyn J, 3'-Ethoxy-5,6-dihydro-]
[1]; [4]
  Pf_72h_%Growth_Rep1: 5.68%
[1]; [5]
  Pf_72h_%Growth_Rep2: 5.35%
[2]; [6]
  Tg_72h_%Growth_Rep1: 73.90%
[2]; [7]
  Tg_72h_%Growth_Rep2: 86.54%
[3]; [8]
  Pf_120h_%Growth_Rep1: 7.21%
[3]; [9]
  Pf_120h_%Growth_Rep2: 9.72%
